Broadly, the IC50 is the concentration at which inhibition is half-maximal.

For assay [1], the system named is PC-3 (a prostate cancer cell line). Nature of the assay: In-vitro cell viability assay (CellTiter-Glo). Type of assay: cell-based. For orientation: Cellular ATP, detected with luciferase, serves as a proxy for viable cell number.
The subject of assay [2] is SUM190PT (a breast cancer cell line). Nature of the assay: In-vitro cell viability assay (CellTiter-Glo). Type of assay: cell-based.
The test system of assay [3] is T47D (a breast cancer cell line). Nature of the assay: cells. To be noted: Homo sapiens.
Method: Specifically, the cell lines described in Table 5 were seeded per well in a 96-well plate and incubated at room temperature (37°C, 5% CO2). After 24 hours, the cells were treated with 100 µL of payload compounds or ADC drugs at 9 concentrations (a 4-fold serial dilution starting from 1,000 nM). In particular, a control group (drug concentration 0), which is an untreated group, was also prepared. After 6 days of incubation (37°C, 5% CO2), 100 µL of CellTiter-Glo reagent (CellTiter-Glo® Luminescent Cell Viability Assay kit (Promega, G7571)) was added to each well and pipetted. Fluorescence was measured after incubation at room temperature (RT) for 10 minutes.
Assay [4] has as its system bladder cancer xenograft model (BL9200). Nature of the assay: HuPrime bladder cancer xenograft model (BL9200) in NOD/SCID mice. Type of assay: in vivo, NOD/SCID strain female mice. To be noted: for Tumor Volume (mean ± SEM), Day 25: number of mice in brackets.
A further assay concerns T47D human breast cancer. Nature of the assay: Xenograft model of T47D human breast cancer (xxT47D) in BALB/c nude mice. Type of assay: in vivo, female BALB/c nude mice. Conditions: 50 mg/kg p.o. QD x 4 weeks. (In xenograft studies the graft and the host belong to different species.)

With `CC[C@@]1(O)C(=O)OCc2c1cc1n(c2=O)Cc2c-1nc1cc(F)c(C)c3c1c2[C@@H](N)CC3` [Exatecan, reference compound], the IC50 is 0.62 nM in assay [1] and 2.3 nM in assay [2].

On to `CC[C@@]1(O)C(=O)OCc2c1cc1n(c2=O)Cc2c-1nc1cc3c(c4c1c2[C@@H](NC(=O)[C@@H](C)O)CC4)OCO3` [PBX-7016], for which the figures for the IC50 in assay [1], in assay [3] and in assay [2] were 3.51 nM, 0.47 nM and 9.4 nM, respectively.

For the compound “PADCEV: ADC in which anti-Nectin4 mAb and MMAE are linked by an mc-vc-PAB linker [reference compound]”, in assay [4] (5 mg/kg i.v. QW × 3wks), the “TGI (%), Day 25” value was found to be 108.4%; the “ΔT/ΔC (%), Day 25” value was -8.4%; the “Tumor Volume (mean ± SEM), Day 25” value is given as 27.26 +/- 2.75(10) mm^3. In assay [4] (10 mg/kg i.v. QW × 3wks), the “TGI (%), Day 25” value was 109.4%; the “ΔT/ΔC (%), Day 25” value was -9.4%; the “Tumor Volume (mean ± SEM), Day 25” value is on record as 11.07 +/- 3.12(10) mm^3.

For the compound `CC(=O)c1c(C)c2cnc(Nc3ccc(N4CCNCC4)cn3)nc2n(C2CCCC2)c1=O` [Palbociclib], the “Tumor Weight (g) on Day 28, mean ± SEM” value in the assay with T47D human breast cancer worked out at 0.396 ± 0.047 g. The “Tumor Volume (mm^3), mean ± SEM” value is reported as 249 ± 17 mm^3 in the assay on T47D human breast cancer (day 3); 290 ± 22 mm^3 with T47D human breast cancer (day 7); 328 ± 23 mm^3 with T47D human breast cancer (day 10); 342 ± 26 mm^3 in the assay with T47D human breast cancer (day 14); 344 ± 29 mm^3 in the assay with T47D human breast cancer (day 17); 360 ± 36 mm^3 with T47D human breast cancer (day 21). For the same compound, the “Tumor Volume (mm^3), mean ± SEM” value in the assay on T47D human breast cancer (day 24) stood at 384 ± 42 mm^3; in the assay with T47D human breast cancer (day 28), 407 ± 49 mm^3. Besides, in the assay with T47D human breast cancer (day 28), the “T/Cweight (%)” value is listed as 41.79%. The “TGI (%)” value with T47D human breast cancer (day 28) was 70.93%. The “T/C (%)” value in the assay on T47D human breast cancer (tumor volume day 28 vs control G1) was 43.63%.

These data come from patent EP4796129A1, “ANTI-NECTIN-4 ANTIBODY-DRUG CONJUGATE COMPRISING CAMPTOTHECIN DERIVATIVE” (Celltrion, Inc., priority 2023, dated 2025).
